Assay results published in patent US10906909B2, “Treatment of cognitive and mood symptoms in neurodegenerative and neuropsychiatric disorders with ALPHA5-containing GABAA receptor agonists” (UWM Research Foundation, Inc., priority 2016, dated 2021).

Assays:
[1] = tested on: rats; assay: Morris water maze; format: in vivo, rat
Experimental: The potential of MP-III-022 to affect cognitive performance of rats was assessed in 2 well-validated behavioral models. First, Morris water maze experiments were performed in a 2 m diameter circular pool filled to a height of 30 cm with water at 22±1° C. The escape platform (15 cm×10 cm) was submerged 2 cm below the water surface. All experimental details were as described in Savic et al. (Int. J. Neuropsychopharmacol. 2009, 12, 1179-1193). On each of the five consecutive days rats were given one swimming block, consisting of four trials. For each trial the rat was placed in the water at one of four pseudo-randomly determined starting positions. Once the rat has found and mounted the escape platform it was permitted to remain on the platform for 15 s. […] During the acquisition phase, treatments were applied once daily before the swimming block. On the sixth day, rats were given a treatment-free probe test (60 s) without the platform. The probe test was started from the novel, most distant location. Dependent variables chosen for tracking during the acquisition trials were: escape latency (s), total distance traveled (m), path efficiency (the ratio of the shortest possible path length to actual path length), % of distance swam in the peripheral annulus and mean speed (m/s). The selected parameters in the probe test were the distance swam in the target zone […] and % of the distance swam in the peripheral annulus. We tested the effects of 1, 2.5 and 10 mg/kg MP-III-022 and 2 mg/kg diazepam as control drug. The doses of MP-III-022 were selected so that they elicit a mild, moderate and strong positive modulation of α5GABAARs, respectively, in accordance with the analysis of thorough pharmacokinetic and electrophysiological data presented in Stamenic et al. (Eur. J. Pharmacol. 2016, 791, 433-443). The data from the acquisition days in the Morris water maze were averaged for each rat (total data/total number of trials per day) and analyzed using two-way ANOVA with repeated measures (factors: Treatment and Days) with Days as the repeated measure. In the case of significant interaction, separate one-way ANOVAs were conducted to assess the influence of treatment within individual levels of factor Days. The data from the probe test were assessed using one-way ANOVA.

[2] = Wistar rats, Stamenic et al. 2016, cited from earlier work

## C#Cc1ccc2c(c1)C(c1ccccc1F)=N[C@H](C)c1c(C(=O)NC)ncn1-2 [MP-III-022]
[1]; 1 mg/kg
  spatial learning and memory (water maze, probe test): significant improvement in spatial learning and memory processes
[1]; 1 mg/kg vs 2 mg/kg diazepam and 10 mg/kg MP-III-022 groups
  escape latency, distance, distance in peripheral ring, path efficiency (acquisition): shorter escape latencies, shorter distances, swam less distance in the peripheral ring and had higher path efficiencies
[1]; 1 mg/kg, Day II of acquisition
  path efficiency on Day II: higher path efficiencies compared to the control and all other treatment groups
[1]; MP-III-022 10 mg/kg once daily before swimming block
  spatial learning during acquisition in the water maze: spatial learning incapacitation indistinguishable from that induced by diazepam 2 mg/kg
[1]; high doses
  spatial learning and memory (water maze, probe test): mimic the cognitive disruption effect of diazepam
[2]; i.p. single dose
  terminal elimination half-life t1/2, brain: 70 min
  terminal elimination half-life t1/2, plasma: 35 min
[2]; single i.p. dose
  systemic and brain exposure: excellent systemic and brain exposure
